Experimental findings from paper PMC10269775, “Penicillin-Binding Protein Occupancy Dataset for 18 β-Lactams and 4 β-Lactamase Inhibitors in Neisseria gonorrhoeae” (Microbiology Spectrum, 2023) are described below.

pIC50: −log10 of the molar value. Converted amounts (≈) assume the structure as drawn. Read-outs that look alike come from different tables or passages of the source. Where only a bound is given, the exact number is not on record here.

Experiment [1] concerns N. gonorrhoeae ATCC 19424. The experiment is described as follows: MIC, CLSI broth microdilution. It counts as cell-based. Particulars: Neisseria gonorrhoeae, ATCC19424, strain ATCC 19424. (Dilution methods test growth across graded concentrations, often in twofold steps.)
Experiment [2] addresses PBP1, PBP2 and PBP3 (Neisseria gonorrhoeae, UniProt P08149, H541N). The experiment is classed as binding, Neisseria gonorrhoeae ATCC 19424. The settings on record: read-out: min. IC50 (minimum observed IC50 value); strain ATCC 19424.
The target in experiment [3] is T1, PBP2 (Neisseria gonorrhoeae, UniProt P08149, H541N).
T1 construct: endogenous in cells; host or cells: N. gonorrhoeae ATCC 19424, isolated membrane preparation
The experiment is described as follows: PBP-binding assay (Bocillin FL) in isolated membrane preparations. Particulars: IC50 PBP2, strain ATCC 19424; membrane preparation, 30 min drug then Bocillin FL. Details: species or system Neisseria gonorrhoeae ATCC 19424.

The target in experiment [4] is T2, PBP2 (Neisseria gonorrhoeae, UniProt P08149, A510V/A516G/A574V/F504L/H541N/I556V/I566V/K555Q/P552V).
T2 construct: endogenous in cells; host or cells: N. gonorrhoeae ATCC 49226, isolated membrane preparation
The experiment is described as follows: biochemical. The experiment is classed as binding, Neisseria gonorrhoeae ATCC 49226.

Experiment [5] deals with N. gonorrhoeae ATCC 49226. Put plainly: MIC, CLSI broth microdilution. The experiment is classed as cell-based, Neisseria gonorrhoeae. Particulars: for MIC: Neisseria gonorrhoeae, ATCC49226, strain ATCC 49226.
Experiment [6] has as its target T3, PBP1 (Neisseria gonorrhoeae, UniProt O05131).
T3 construct: endogenous in cells; host or cells: N. gonorrhoeae ATCC 19424, isolated membrane preparation
The experiment is described as follows: PBP-binding assay (Bocillin FL) in isolated membrane preparations. Particulars: strain ATCC 19424; membrane preparation, 30 min drug then Bocillin FL; read-out: IC50 PBP1 (converted). The text has this:
(§1) Bacterial membranes were collected by ultracentrifugation.

Experiment [7] concerns the target T4, PBP1 (Neisseria gonorrhoeae, UniProt O05131, A375T/F666S).
T4 construct: endogenous in cells; host or cells: N. gonorrhoeae ATCC 49226, isolated membrane preparation
Described as above. Details: species or system Neisseria gonorrhoeae ATCC 49226.
Source text: as §1

Experiment [8] deals with T5, PBP3 (Neisseria gonorrhoeae, UniProt Q5FAB9).
T5 sequence (Q5FAB9 22-469): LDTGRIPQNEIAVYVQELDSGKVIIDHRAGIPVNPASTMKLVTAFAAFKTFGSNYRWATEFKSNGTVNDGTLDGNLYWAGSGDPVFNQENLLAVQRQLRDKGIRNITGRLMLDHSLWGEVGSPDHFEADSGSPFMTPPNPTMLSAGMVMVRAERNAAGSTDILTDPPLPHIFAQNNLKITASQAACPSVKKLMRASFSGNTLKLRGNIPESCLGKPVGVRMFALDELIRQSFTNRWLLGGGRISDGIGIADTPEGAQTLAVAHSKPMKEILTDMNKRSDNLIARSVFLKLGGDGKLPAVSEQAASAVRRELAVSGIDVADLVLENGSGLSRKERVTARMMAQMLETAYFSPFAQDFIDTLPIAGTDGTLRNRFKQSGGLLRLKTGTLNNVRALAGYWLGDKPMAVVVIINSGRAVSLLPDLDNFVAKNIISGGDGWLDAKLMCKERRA
The settings on record: read-out: IC50 PBP3; strain ATCC 19424; membrane preparation, 30 min drug then Bocillin FL.

In experiment [9] the target is T5, PBP3. The settings on record: read-out: IC50 PBP3; strain ATCC 49226; membrane preparation, 30 min drug then Bocillin FL.
The target of experiment [10] is PBP1, PBP2 and PBP3 (Neisseria gonorrhoeae, UniProt P08149, A510V/A516G/A574V/F504L/H541N/I556V/I566V/K555Q/P552V). It counts as binding, Neisseria gonorrhoeae ATCC 49226. Particulars: read-out: min. IC50 (minimum observed IC50 value); strain ATCC 49226.
Experiment [11] relates to N. gonorrhoeae ATCC 19424 and ATCC 49226. Put plainly: MIC, summary over both strains. The experiment is classed as cell-based, Neisseria gonorrhoeae. The settings on record: compared with imipenem.
Where [12] appears, read: IC50 PBP2, strain ATCC 49226, membrane preparation, 30 min drug then Bocillin FL.
[13] abbreviates: IC50 PBP1, strain ATCC 49226, membrane preparation, 30 min drug then Bocillin FL.

Broadly, the MIC is the lowest concentration that inhibits growth of the organism. For orientation: pIC50 means −log10 of the IC50, conventionally taken in molar units. A word on the IC50: it is the point on the concentration scale where inhibition reaches its midpoint. For the compound `CC1(C)S[C@@H]2[C@H](NC(=O)C(C(=O)O)c3ccccc3)C(=O)N2[C@H]1C(=O)O` (stereo partly drawn) [CAR, carbenicillin], the MIC was 0.032 mg/L (≈ 0.0846 µM) in experiment [1] (read-out: MIC), 0.032 mg/L (≈ 0.0846 µM) in [1] (read-out: MIC (Table S1)), 0.5 mg/L (≈ 1.32 µM) in experiment [5] (read-out: MIC) and 0.5 mg/L (≈ 1.32 µM) in [5] (read-out: MIC (Table S1)). Also, the pIC50 at PBP1, PBP2 and PBP3 [2] is 6.46; on PBP2 [3], 6.46; against PBP2 [4] (IC50 PBP2 (Table S1), strain ATCC 49226) it was under 5.28; on PBP1 [7] (IC50 PBP1 (Table S1), strain ATCC 49226), under 5.28. Also, the IC50 at PBP1 [6] was over 5.29 µM.

For `CCO/N=C(\C(=O)N[C@@H]1C(=O)N2C(C(=O)[O-])=C(Sc3nc(-c4cc[n+](C)cc4)cs3)CS[C@H]12)c1nsc(N)n1` [CPT, ceftaroline], the MIC in experiment [1] (read-out: MIC) was 0.032 mg/L (≈ 0.0529 µM); in [1] (read-out: MIC (Table S1)), 0.032 mg/L (≈ 0.0529 µM); in experiment [5] (read-out: MIC), 0.5 mg/L (≈ 0.827 µM); in [5] (read-out: MIC (Table S1)), 0.5 mg/L (≈ 0.827 µM). For the same compound, the pIC50 at PBP1, PBP2 and PBP3 [2] is 6.61; on PBP2 [3], 6.61; at PBP2 [4] (setting [12]), 6.46; at PBP3 [8] it was 5.50; at PBP1 [7] (setting [13]) it was under 5.48; at PBP3 [9], 5.67. Further, the pIC50 at PBP1, PBP2 and PBP3 [10] was 6.46. Further, the “MIC increase for strain ATCC 49226” value in experiment [5] (ATCC 49226 versus ATCC 19424) amounted to 16 fold. The IC50 on PBP1 [6] was over 3.31 µM.

`CO/N=C(\C(=O)N[C@@H]1C(=O)N2C(C(=O)O)=C(CSc3nc(=O)c(=O)[nH]n3C)CS[C@H]12)c1csc(N)n1` [CRO, ceftriaxone]: the MIC was 0.004 mg/L (≈ 0.00721 µM) in experiment [1] (read-out: MIC), 0.004 mg/L (≈ 0.00721 µM) in [1] (read-out: MIC (Table S1)), 0.002 mg/L (≈ 0.00361 µM) in [5] (read-out: MIC) and 0.008 mg/L (≈ 0.0144 µM) in experiment [5] (read-out: MIC (Table S1)). Further, at PBP1 [6], the IC50 was 3.37 µM. Besides, the pIC50 at PBP1 [7] (setting [13]) is 5.47.

`C[C@@H](O)[C@H]1C(=O)N2C(C(=O)O)=C(S[C@@H]3CN[C@H](C(=O)Nc4cccc(C(=O)O)c4)C3)[C@H](C)[C@H]12` [ETP, ertapenem]: the MIC came to 0.004 mg/L (≈ 0.00841 µM) in experiment [1] (read-out: MIC), 0.004 mg/L (≈ 0.00841 µM) in [1] (read-out: MIC (Table S1)), 0.008 mg/L (≈ 0.0168 µM) in experiment [5] (read-out: MIC) and 0.008 mg/L (≈ 0.0168 µM) in experiment [5] (read-out: MIC (Table S1)). The pIC50 on PBP2 [3] was 7.08; against PBP2 [4] (setting [12]), 7.68; on PBP1 [7] (setting [13]) it was 5.92. Besides, the IC50 at PBP1 [6] was 1.01 µM. In addition, in experiment [11], the times more active is on record as 8 times.

On to `CO/N=C(\C(=O)N[C@@H]1C(=O)N2C(C(=O)[O-])=C(C[N+]3(C)CCCC3)CS[C@H]12)c1csc(N)n1` [FEP, cefepime], for which the MIC worked out at 0.008 mg/L (≈ 0.0166 µM) in experiment [1] (read-out: MIC), 0.008 mg/L (≈ 0.0166 µM) in experiment [1] (read-out: MIC (Table S1)), 0.032 mg/L (≈ 0.0666 µM) in experiment [5] (read-out: MIC) and 0.032 mg/L (≈ 0.0666 µM) in [5] (read-out: MIC (Table S1)). Also, at PBP1 [6], the IC50 was over 4.16 µM. The compound also showed a pIC50 on PBP1 [7] (setting [13]) of under 5.38.

With `CO[C@@]1(NC(=O)Cc2cccs2)C(=O)N2C(C(=O)O)=C(COC(N)=O)CS[C@@H]21` [FOX, cefoxitin], the MIC came out at 0.25 mg/L (≈ 0.585 µM) in experiment [1] (read-out: MIC), 0.25 mg/L (≈ 0.585 µM) in experiment [1] (read-out: MIC (Table S1)), 0.5 mg/L (≈ 1.17 µM) in experiment [5] (read-out: MIC) and 0.5 mg/L (≈ 1.17 µM) in [5] (read-out: MIC (Table S1)). Further, the pIC50 was 6.04 at PBP2 [3], under 5.33 against PBP2 [4] (setting [12]) and 5.67 on PBP1 [7] (setting [13]). For the same compound, on PBP1 [6], the IC50 is 1.36 µM.
